Six compounds from paper PMC11391413 (Chemical Science, 2024) can be followed below.

Assay [1] deals with NSH3 domain of full-length GRB2 (Homo sapiens, UniProt P62993). Nature of the assay: NMR titration (1H-15N HSQC chemical shift perturbation) of 15N-labelled full-length GRB2 with SOS1 PRMs, KD1. To be noted: read-out: K D (μM) from full-length GRB2, K D1 (NSH3), global fit of residues with maximum CSPs over 0.03 ppm, independent two-site binding model, GRB2 approx. 200 to 270 μM, 20 mM sodium phosphate, 25 °C, bootstrap 1000 iterations.
Sequence of NSH3 domain of full-length GRB2 (P62993 whole entry, the tested form may be a part): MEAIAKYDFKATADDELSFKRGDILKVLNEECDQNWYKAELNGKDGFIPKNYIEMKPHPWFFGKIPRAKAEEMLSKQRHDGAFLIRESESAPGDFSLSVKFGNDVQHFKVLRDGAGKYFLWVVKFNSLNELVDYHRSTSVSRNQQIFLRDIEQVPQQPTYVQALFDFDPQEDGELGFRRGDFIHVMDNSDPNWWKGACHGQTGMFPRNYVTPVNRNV
Description: Models with two binding sites basically require a total of four dissociation constants (KD1–KD4). The two-site independent binding model equates KD3 and KD4 with KD2 and KD1, respectively. In contrast, the two-site cooperative binding model (two-site dependent model) differentiates the four dissociation constants, with the assumption that KD3 is modulated by another ligand binding to KD2, as a function of KD2 and a modulation factor α. KD4 is then calculated from KD1 and KD2, as shown in the equation provided in the figure (the detailed models and theory are described in Materials and methods). […] The calculations were performed using only residues showing the maximum CSPs over 0.03 ppm.
2D ^1H–^15N HSQC spectra were measured at each titration point. Chemical shift differences, Δ, were analysed by Δ = ((ΔH)^2 + (ΔN/5)^2)^1/2, where ΔH and ΔN are the differences in ppm for the backbone amide ^1H and ^15N chemical shifts between the two conditions. 1 ppm corresponds to 600.13 Hz for ^1H and 60.81 Hz for ^15N.
The dissociation constants for each residue were calculated by non-linear regression analysis with the equation for the single state model:[33] […]
In all models, the non-linear least-squares fitting was performed by the Levenberg–Marquardt algorithm. The precision of the model parameters was assessed by conducting the bootstrap resampling on the residuals of the regression model. […]

Assay [2] addresses T1, full-length GRB2, KD1 (NSH3) (Homo sapiens, UniProt P62993).
T1 construct: further corroborated by our ITC analysis of the full-length GRB2; His6 (N, cleaved yes); TEV protease cleavage site (N, cleaved yes); made in house; host or cells: Escherichia coli BL21 (DE3) pLysS
The experiment in a line: ITC of full-length GRB2 with SOS1 PRMs, KD1. Type of assay: binding.
Description: The calculations were performed using only residues showing the maximum CSPs over 0.03 ppm. […] Based on the assumption of non-interference between the two binding sites from the NMR titration experiments, we also employed a two-site independent model in the ITC analysis, referred to as the ‘Two Set of Sites’ model in MicroCal ITC-ORIGIN Analysis Software (Malvern Panalytical).
The ITC experiments were carried out at 25 °C on a MicroCal Auto-iTC 200 instrument (Malvern Panalytical) with the following experimental parameters: 20 injections per experiment; 2 μL injection volume, except that the first injection of 0.4 μL to be discarded at the analysis; 150 s waiting period between the injections; stirring at 750 rpm; 5 μcal s^−1 reference power. […] Each binding experiment was accompanied by a corresponding reference experiment exclusively with the sodium phosphate buffer and ultrapure water. Each parameter was determined by analyzing row ITC data with the model, Two Set of Sites, using MicroCal ITC-ORIGIN Analysis Software (Malvern Panalytical).

No end group written: not given here.

T1 sequence (P62993 whole entry): as the sequence (P62993 whole entry, the tested form may be a part) above

Regarding `CC(C)C[C@H](NC(=O)[C@H](CCCCN)NC(=O)[C@@H]1CCCN1)C(=O)N1CCC[C@H]1C(=O)N1CCC[C@H]1C(=O)N[C@@H](CCCCN)C(=O)N[C@H](C(=O)N[C@@H](Cc1ccc(O)cc1)C(=O)N[C@@H](CCCCN)C(=O)N[C@@H](CCCNC(=N)N)C(=O)N[C@@H](CCC(=O)O)C(=O)N[C@@H](Cc1c[nH]cn1)C(=O)O)[C@@H](C)O` [S10], the values for the Kd in assay [1] and in assay [2] were 483 ± 45.7 µM and 71.5 ± 24.2 µM, respectively. DSPPAIPPRQPT [S5] registered a Kd in assay [2] of 15.9 ± 1.5 µM. In the case of ESPPLLPPREPV [S6], in assay [2], the Kd came to 40.1 ± 6.5 µM. Still for that read-out and setting: to IAGPPVPPRQST [S9] belongs 35.6 ± 4.2 µM. Still for that read-out and setting: to PKPLPRFPKK [S2] belongs 65.1 ± 23.7 µM; to PSPHGTRRHLPSPP [S8], 123 ± 18.6 µM.
